The target of assay [1] is T1, hSEP (sol hu)(his)6; His6-tagged hSEP ectodomain (Homo sapiens, UniProt Q495T6).
T1 construct: His6-tagged hSEP ectodomain; His6; purchased Innogenetics, Ghent, Belgium
T1 sequence (Q495T6 49-779 limits assumed): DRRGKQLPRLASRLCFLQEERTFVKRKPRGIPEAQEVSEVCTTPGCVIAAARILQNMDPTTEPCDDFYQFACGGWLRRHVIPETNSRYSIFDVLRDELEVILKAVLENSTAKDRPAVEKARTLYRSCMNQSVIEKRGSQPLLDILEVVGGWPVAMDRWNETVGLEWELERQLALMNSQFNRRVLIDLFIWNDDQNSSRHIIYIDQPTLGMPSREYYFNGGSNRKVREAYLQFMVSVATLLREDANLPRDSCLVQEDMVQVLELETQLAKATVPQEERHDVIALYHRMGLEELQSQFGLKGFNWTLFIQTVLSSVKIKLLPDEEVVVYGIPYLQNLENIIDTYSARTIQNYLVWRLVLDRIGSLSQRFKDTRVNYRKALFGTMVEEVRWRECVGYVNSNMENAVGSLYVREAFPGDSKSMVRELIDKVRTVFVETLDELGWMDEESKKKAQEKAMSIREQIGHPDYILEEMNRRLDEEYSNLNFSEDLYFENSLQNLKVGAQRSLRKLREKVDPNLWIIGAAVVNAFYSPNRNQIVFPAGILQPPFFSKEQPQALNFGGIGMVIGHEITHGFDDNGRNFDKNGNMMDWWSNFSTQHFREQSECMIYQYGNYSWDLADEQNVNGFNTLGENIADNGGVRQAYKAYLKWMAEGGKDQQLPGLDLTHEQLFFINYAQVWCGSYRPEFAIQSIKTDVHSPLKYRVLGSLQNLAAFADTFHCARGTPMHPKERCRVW
In words: Enzymatic breakdown of CNP and VIP by hSEP and its inhibition, in vitro, HPLC. The class given is biochemical. On the procedure: The inhibition of the enzymatic breakdown of CNP and VIP by the compounds used according to the invention was measured in an enzymatic in vitro assay according to the following protocol:
All test compounds were dissolved in DMSO at 10 mM and further diluted with assay buffer.
80 μl of assay buffer, 10 μl of enzyme working solution (NEP or hSEP) and 10 μl of peptide stock solution (VIP or CNP) were mixed in an Eppendorf vial and incubated for 120 min. at 37° C. The enzymatic reaction was subsequently terminated by heating to 95° C. for 5 min. After centrifugation (Heraeus Biofuge B, 3 min) the supernatant was subjected to HPLC.
70 μl of assay buffer, 10 μl of enzyme working solution (NEP or hSEP) and 10 μl of a test compound solution were mixed in an Eppendorf vial and preincubated at 37° C. for 15 minutes. Then, 10 μl of peptide stock solution (VIP or CNP) was added and the reaction mixture was incubated at 37° C. for 60 min. to allow enzymatic hydrolysis. The enzymatic reaction was subsequently terminated by heating to 95° C. for 5 min. After centrifugation (Heraeus Biofuge B, 3 min) the supernatant was subjected to HPLC. In order to separate the remaining substrate from the cleavage products, a reversed phase HPLC technique with a CC 125/4 Nucleosil 300/5 C18 RP column and a CC 8/4 Nucleosil 100/5 C18 precolumn (Macherey-Nagel, Düren, Germany) was used. 60 μl of the reaction samples were injected into the HPLC and the column was eluted at a flow rate of 1 ml/min with the following gradient:
All peptides were detected by absorbance at 214 nm (UV spectroscopy). The percentage (=%) of hydrolysis was calculated on the basis of the peak area of the undegraded peptide for an enzyme containing sample Y in correlation to a sample containing the same concentration of peptide without enzyme (blank) by the following equation: % hydrolysis=100*(blank−Y)
Basis of the calculation of % inhibition is the peak area of the undegraded peptide (VIP or CNP) for an inhibitor containing sample X in comparison to samples containing only peptide (blank) or peptide and enzyme without inhibitor (control) according to the following equation: % inhib=100*(X−control)/(blank−control)
All samples were run in duplicate and mean values were used. A solvent control (0.1% DMSO) was added to each assay run. CNP and VIP were cleaved by NEP and hSEP in vitro.

The test system of assay [2] is TUNEL positive cells in heart, liver and kidney. The assay can be described thus: Adriamycin toxicity: determination of anti-apoptotic activity (TUNEL staining). The class given is in vivo, Wistar rats. As to conditions: for TUNEL positive cells, Heart / TUNEL positive cells, Kidney / TUNEL positive cells, Liver: ± SEM. As to the method:
2. Adriamycin Toxicity: Determination of Anti-Apoptotic Activity
Wistar rats, weighing 200-250 g, were anesthetized with chloral hydrate, 400 mg/kg, and Alzet osmotic minipumps (2 ML1), were implanted subcutaneously (=s.c.). The pumps had been filled with either vehicle or solution containing compounds of the invention at the appropriate concentration and primed prior to implantation. Animals subsequently received adriamycin at three equal daily doses of 5 mg/kg i.p. on days 1, 2 and 3. Rats were euthanized 5 days after the first injection of adriamycin and transcardially perfused with a solution containing 4% paraformaldehyde in phosphate buffer. The heart, liver and kidneys were subsequently removed and embedded in parafin.
TUNEL staining: For terminal deoxynucleotide transferase-mediated dUTP nick end-label (TUNEL) based histological analysis, organs were post-fixed for 5 days at 4° C. and paraffin-embedded. TUNEL staining was performed on 10 μm thick paraffin sections using the ApopTag Peroxidase kit (S 7100, Oncor Appligene, Heidelberg, Germany) according to the manufacturer's instructions. Briefly, after pretreatment with proteinase K and quenching of endogenous peroxidase, sections were incubated in equilibration buffer followed by working strength TdT enzyme (incorporating digoxigenin labeled dUTP nucleotides to free 3′-OH DNA termini), (1 hr, 37° C.). Sections were incubated in stop/wash buffer (30 min, 37° C.), then with anti-digoxigenin-peroxidase conjugate (30 min) followed by DAB substrate (Sigma, Deisenhofen, Germany) and lightly counterstained with methylgreen.
Wistar rats were administered adriamycin at the cumulative dose of 15 mg/kg i.p. The test substance of Example 4 was administered s.c. at the doses of 20, 50 or 100 mg/kg and day by means of Alzet osmotic minipumps over 5 days. Animals were euthanized and transcardially perfused 5 days after the first injection of adriamycin and the heart, kidney and liver were processed for TUNEL staining. Densities of TUNEL positive cells were determined as described in the methods. Results for each organ (heart, liver, kidney) were measured as mean densities of TUNEL positive cells ±SEM for the control groups and the different test groups (20, 50 or 100 mg/kg and day of test compound of Example 4) and listed in table 8 below.
Comparisons between groups were performed by means of Student's t test (**P<0.01; ***P<0.001 compared to vehicle treated rats).

The mark [3] stands for this setting: adriamycin 15 mg/kg cumulative i.p. + 20 mg/kg and day s.c. minipump over 5 days.
Setting [4] is: adriamycin 15 mg/kg cumulative i.p. + 50 mg/kg and day s.c. minipump over 5 days.
[5] abbreviates: adriamycin 15 mg/kg cumulative i.p. + 100 mg/kg and day s.c. minipump over 5 days.

“Also recorded” adds a separate entry of the source. Where two headings read alike, the source gives them in different places. Marks after values point to notes of the source that are not given here.

Broadly, the IC50 is the concentration that inhibits the measured activity by half. For “{(3S)-3-[({1-[(2″rel1″)-2-ethoxycarbonyl)-4-(isopropylamino)-4-oxobutyl]cyclopentyl}-carbonyl)amino]-2-oxo-2,3,4,5-tetrahydro-1H-1-benzazepin-1-yl}acetic acid [Example 4]”, the IC50 in assay [1] (substrate CNP (32-53), read-out: inhibition of breakdown of CNP by hSEP, IC50) is 1 nM; in assay [1] (substrate VIP, read-out: inhibition of breakdown of VIP by hSEP, IC50), 3.1 nM. The “protection against adriamycin toxicity (densities of TUNEL positive cells)” value in assay [2] (20, 50 or 100 mg/kg and day s.c., heart, liver, kidney) was “significant protection against adriamycin toxicity in the heart, liver and kidney; also recorded: dose-dependently decreased the cytotoxic effect of adriamycin in all three organs”. Further, the entries for the “TUNEL positive cells, Heart” value in assay [2] (setting [3]), in assay [2] (setting [4]) and in assay [2] (setting [5]) were 4.350 ± 0.248*** cells/mm3 × 102, 3.700 ± 0.260*** cells/mm3 × 102 and 3.550 ± 0.157*** cells/mm3 × 102, respectively. The “TUNEL positive cells, Kidney” value is recorded as 7.900 ± 0.306*** cells/mm3 × 102 in assay [2] (setting [3]), 7.850 ± 0.587** cells/mm3 × 102 in assay [2] (setting [4]) and 6.300 ± 0.260*** cells/mm3 × 102 in assay [2] (setting [5]). Moreover, the “TUNEL positive cells, Liver” value in assay [2] (setting [3]) was 8.750 ± 0.301** cells/mm3 × 102; in assay [2] (setting [4]), 8.250 ± 0.271*** cells/mm3 × 102; in assay [2] (setting [5]), 7.450 ± 0.329*** cells/mm3 × 102. In addition, the “most effective dose against adriamycin toxicity” value in assay [2] (of 20, 50 or 100 mg/kg and day s.c.) was 100 mg/kg and day.

These data come from patent publication US20080085889A1, “Amidomethyl-Substituted 1-(Carboxyalkyl) Cyclopentyl-Carbonylamino-Benzazepine-N-Acetic Acid Compounds, Process and Intermediate Products for Their Preparation and Pharmaceutical Compositions Containing Them” (SOLVAY PHARMACEUTICALS GmbH, priority 2003, published 2008).
